Measured values taken from patent publication US11773078B2, “Furin inhibitors” (Glaxosmithkline Intellectual Property Development Limited, priority 2018, dated 2023).
Where a name gives a salt, the structure may show the parent alone.

Assays:
[1] = target: T1, furin (endogenous protease) in U20S cells (Homo sapiens, UniProt P09958); experiment: Furin cell-based assay (image-based, Golgi-targeted GFP with BMP10 furin/PCSK cleavage site); details: 24-hour incubation, read-out: furin golgi cell pXC50 (converted);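 further: Read-out is mean GFP fluorescence of Golgi puncta per cell by high-content imaging, retained when furin inhibited, over an eleven-point 0.00017–10 µM series, four-parameter fit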
T1 construct: the endogenous protease cleaves GFP; endogenous in cells; host or cells: U2OS cells transduced with a BacMam reporter
T1 sequence (P09958 108-794): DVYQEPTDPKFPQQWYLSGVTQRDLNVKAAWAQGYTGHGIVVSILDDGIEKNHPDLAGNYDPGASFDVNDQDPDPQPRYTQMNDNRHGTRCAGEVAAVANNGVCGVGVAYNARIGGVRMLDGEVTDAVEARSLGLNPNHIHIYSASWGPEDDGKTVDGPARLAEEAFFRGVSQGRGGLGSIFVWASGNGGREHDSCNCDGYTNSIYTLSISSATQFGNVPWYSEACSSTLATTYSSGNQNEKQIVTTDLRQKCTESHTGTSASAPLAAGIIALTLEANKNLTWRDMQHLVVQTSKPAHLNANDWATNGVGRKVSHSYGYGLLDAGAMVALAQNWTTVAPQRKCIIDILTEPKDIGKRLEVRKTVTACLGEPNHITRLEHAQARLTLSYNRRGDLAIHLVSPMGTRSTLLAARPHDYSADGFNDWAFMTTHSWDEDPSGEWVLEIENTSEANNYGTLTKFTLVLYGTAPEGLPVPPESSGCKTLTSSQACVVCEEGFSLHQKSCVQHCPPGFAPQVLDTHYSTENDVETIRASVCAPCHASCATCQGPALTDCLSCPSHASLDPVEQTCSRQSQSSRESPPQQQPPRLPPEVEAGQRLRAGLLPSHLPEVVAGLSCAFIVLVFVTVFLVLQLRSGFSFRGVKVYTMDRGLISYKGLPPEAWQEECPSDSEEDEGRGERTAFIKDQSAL
Method: This assay uses an image-based platform to evaluate the intracellular activity of compounds of the invention. Reactions were performed in black 384-well, tissue culture-treated, clear bottom plates (Greiner). Compounds under analysis were dissolved in DMSO (1.0 mM) and serially diluted 1 to 3 with DMSO through eleven dilutions. This creates a final compound concentration range from 0.00017 to 10 μM, and 0.1 μL of each concentration was transferred to the corresponding well of the assay plate. Assays were initiated by the addition of U20S cells simultaneously transduced with a BacMam-delivered construct containing a Golgi-targeting sequence followed by a 12-amino acid furin/PCSK cleavage site from Bone Morphogenic Protein 10 (BMP10) and then GFP at the C terminus. […] Briefly, frozen cells are thawed in assay media (Dulbecco's Modified Eagles Medium Nutritional Mixture F-12 (Ham) without phenol red containing 5% FBS) and diluted to deliver 6000 cells/well (50 μL) to the plate using a Multidrop Combi (Thermo).
After a 24-hour incubation period at 37° C., the cells are stained with Cell Mask Deep Red, fixed in paraformaldehyde and the nuclei stained using Ho33342. The Golgi-targeted GFP forms bright punctate clusters within the cell. In the absence of a furin inhibitor, the endogenous protease cleaves GFP from its N-acetylgalactosaminyltransferase-2 Golgi tether, releasing GFP into the Golgi lumen where fluorescence is diluted below the threshold of assay sensitivity. […] Cellular GFP intensity is determined by image-based acquisition (Incell 2200, Perkin Elmer) at 40× magnification with 4 fields measured per well. Multi-scale tophat segmentation is used to identify the GFP-tagged puncta and to quantitate the average fluorescence of all puncta on a per cell basis. Cellular toxicity is determined in parallel.
Data were analyzed using AbaseXE 7.3, utilizing a four-parameter curve fit equation. The following values were used to define limits and/or constraints for each of the four parameters: • Minimum—limit −10 to 10 • Maximum—90 to 110 • Slope—limit 0.5 to 2.0 • pXC50 confidence interval—10
Raw counts obtained from the respective plate reader (Perkin Elmer) were captured for data analysis. Curves were generated using the equation: Y=A+[(B−A)/(1+(10^C/x)^D)] • where: A=minimum response • B=maximum response • C=log 10*XC50 • D=slope factor • x=log 10 compound concentration [M]
The results were recorded as pXC50 values (−C in the above equation)

[2] = target: T2, Furin (108-574-Tev-Flag-His) enzyme (Homo sapiens, UniProt P09958); experiment: Furin enzyme assay; assay type: biochemical
T2 construct: Furin (108-574-Tev-Flag-His) enzyme was expressed and purified from CHO cells; TEV cleavage site (C); FLAG (C); His (C); made in house; host or cells: CHO cells
T2 sequence (P09958 108-574): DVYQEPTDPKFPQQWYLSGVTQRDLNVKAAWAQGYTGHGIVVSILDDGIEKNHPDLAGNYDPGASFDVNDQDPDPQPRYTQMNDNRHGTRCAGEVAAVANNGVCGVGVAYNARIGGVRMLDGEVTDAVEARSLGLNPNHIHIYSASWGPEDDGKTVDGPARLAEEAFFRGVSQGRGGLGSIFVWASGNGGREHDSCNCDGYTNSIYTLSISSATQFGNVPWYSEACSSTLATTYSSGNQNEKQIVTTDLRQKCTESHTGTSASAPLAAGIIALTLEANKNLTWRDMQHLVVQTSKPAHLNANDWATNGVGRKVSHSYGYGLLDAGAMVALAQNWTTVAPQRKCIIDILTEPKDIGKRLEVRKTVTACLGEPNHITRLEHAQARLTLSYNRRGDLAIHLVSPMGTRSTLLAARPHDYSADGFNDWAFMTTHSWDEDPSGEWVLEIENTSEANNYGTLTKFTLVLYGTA
In short: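 CHO-expressed, purified furin construct at 40 pM in 100 mM HEPES pH7.5, 1 mM CaCl2, 0.005% Triton X-100. Eleven-point 1:3 series, 0.00017–10 μM final, incubated 2 h at room temperature and read on Envision. pXC50 from four-parameter fit.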

## CC(=O)NCC1CCN(Cc2cc(Oc3ccc(N4CCN(C(=O)CCC(=O)O)CC4)nc3)nc(-c3cc(Cl)cc(Cl)c3)c2)CC1 [Example 33, 4-(4-(5-((4-((4-(Acetamidomethyl)piperidin-1-yl)methyl)-6-(3,5-dichlorophenyl)pyridin-2-yl)oxy)pyridin-2-yl)piperazin-1-yl)-4-oxobutanoic acid]
[1]
  EC50: 39.8 nM
[2]
  furin enzyme pIC50: 8.5

## CNC(=O)NCC1CCN(Cc2cc(Oc3ccc(N4CCN(CCC(C)S(C)(=O)=O)CC4)nc3)nc(-c3cc(Cl)cc(Cl)c3)c2)CC1 (stereo not shown) [Example 219, 1-((1-((2-(3,5-dichlorophenyl)-6-((6-(4-(3-(methylsulfonyl)butyl)piperazin-1-yl)pyridin-3-yl)oxy)pyridin-4-yl)methyl)piperidin-4-yl)methyl)-3-methylurea]
[1]
  EC50: 0.398 nM
[2]
  furin enzyme pIC50: 9.8

## CC(=O)NCC1CCN(Cc2cc(Oc3cnc(N4CCN(CCO)CC4)nc3)nc(-c3cc(Cl)cc(Cl)c3)c2)CC1 [Example 93, N-((1-((2-(3,5-dichlorophenyl)-6-((2-(4-(2-hydroxyethyl)piperazin-1-yl)pyrimidin-5-yl)oxy)pyridin-4-yl)methyl)piperidin-4-yl)methyl)acetamide, 4 hydrochloride]
[1]
  EC50: 5.01 nM
[2]
  furin enzyme pIC50: 8.9

## CC(=O)NCC1CCN(Cc2cc(Oc3ccc(N4CC5CCC(C4)N5CCC(=O)O)nc3)nc(-c3cc(Cl)cc(Cl)c3)c2)CC1 [Example 185, 3-(3-(5-((4-((4-(Acetamidomethyl)piperidin-1-yl)methyl)-6-(3,5-dichlorophenyl)pyridin-2-yl)oxy)pyridin-2-yl)-3,8-diazabicyclo[3.2.1]octan-8-yl)propanoic acid]
[1]
  EC50: 31.6 nM
[2]
  furin enzyme pIC50: 9.5

## CCN1CCN(c2ccc(Oc3cc(CN4CCC(CC(=O)O)CC4)cc(-c4cc(Cl)cc(Cl)c4)n3)nn2)CC1 [Example 358, 2-(1-((2-(3,5-dichlorophenyl)-6-((6-(4-ethylpiperazin-1-yl)pyridazin-3-yl)oxy)pyridin-4-yl)methyl)piperidin-4-yl)acetic acid]
[1]
  EC50: 20 nM
[2]
  furin enzyme pIC50: 9.1

## CNC(=O)OCC1CCN(Cc2cc(Oc3cnc(N4CCN(C(C)CCO)CC4)nc3)nc(-c3cc(Cl)cc(Cl)c3)c2)CC1 (stereo not shown) [Example 209, (1-((2-(3,5-dichlorophenyl)-6-((2-(4-(4-hydroxybutan-2-yl)piperazin-1-yl)pyrimidin-5-yl)oxy)pyridin-4-yl)methyl)piperidin-4-yl)methyl methylcarbamate]
[1]
  EC50: 2.51 nM
[2]
  furin enzyme pIC50: 9.6

## CNCc1cc(Oc2ccc(N3CCC(N)CC3)nc2)nc(-c2cc(C)cc(Cl)c2)c1 [Example 108, 1-(5-((6-(3-Chloro-5-methylphenyl)-4-((methylamino)methyl)pyridin-2-yl)oxy)pyridin-2-yl)piperidin-4-amine, 4 hydrochloride]
[1]
  EC50: > 50100 nM
[2]
  furin enzyme pIC50: 7.5

## CN1C[C@@H]2C[C@H]1CN2c1ccc(Oc2cc(CN3CCC(CC(=O)O)CC3)cc(-c3cc(Cl)cc(Cl)c3)n2)cn1 [Example 203, 2-(1-((2-(3,5-dichlorophenyl)-6-((6-((1S,4S)-5-methyl-2,5-diazabicyclo[2.2.1]heptan-2-yl)pyridin-3-yl)oxy)pyridin-4-yl)methyl)piperidin-4-yl)acetic acid]
[1]
  EC50: 12.6 nM
[2]
  furin enzyme pIC50: 8.7

## CNC(=O)NCC1CCN(Cc2cc(Oc3cnc(N4CCN(CCCS(C)(=O)=O)CC4)nc3)nc(-c3cc(Cl)cc(Cl)c3)c2)CC1 [Example 257, 1-((1-((2-(3,5-dichlorophenyl)-6-((2-(4-(3-(methylsulfonyl)propyl)piper-1-yl)pyrimidin-5-yl)oxy)pyridin-4-yl)methyl)piperidin-4-yl)methyl)-3-methylurea]
[1]
  EC50: 5.01 nM
[2]
  furin enzyme pIC50: 10.1

## Cc1nc(N2CCN(C)CC2)ccc1Oc1cc(CN2CCC(CC(=O)O)CC2)cc(-c2cc(Cl)cc(Cl)c2)n1 [Example 149, 2-(1-((2-(3,5-dichlorophenyl)-6-((2-methyl-6-(4-methylpiperazin-1-yl)pyridin-3-yl)oxy)pyridin-4-yl)methyl)piperidin-4-yl)acetic acid]
[1]
  EC50: 79.4 nM
[2]
  furin enzyme pIC50: 8.3

## CN1CCN(c2ncc(Oc3cc(CN4CCC(CCS(N)(=O)=O)CC4)cc(-c4cc(Cl)cc(Cl)c4)n3)cn2)CC1 [Example 87, 2-(1-((2-(3,5-Dichlorophenyl)-6-((2-(4-methylpiperazin-1-yl)pyrimidin-5-yl)oxy)pyridin-4-yl)methyl)piperidin-4-yl)ethanesulfonamide, 4 hydrochloride]
[1]
  EC50: 3.98 nM
[2]
  furin enzyme pIC50: 9

## Cc1nc(N2CCN(C)CC2)ncc1Oc1cc(CN2CCC(CC(=O)O)CC2)cc(-c2cc(Cl)cc(Cl)c2)n1 [Example 148, 2-(1-((2-(3,5-dichlorophenyl)-6-((4-methyl-2-(4-methylpiperazin-1-yl)pyrimidin-5-yl)oxy)pyridin-4-yl)methyl)piperidin-4-yl)acetic acid]
[1]
  EC50: 63.1 nM
[2]
  furin enzyme pIC50: 8.3

## COC(=O)NCC1CCN(Cc2cc(Oc3cnc(N4CCN5CCC4C5)nc3)nc(-c3cc(Cl)cc(Cl)c3)c2)CC1 (stereo not shown) [Example 336, methyl ((1-((2-((2-(1,4-diazabicyclo[3.2.1]octan-4-yl)pyrimidin-5-yl)oxy)-6-(3,5-dichlorophenyl)pyridin-4-yl)methyl)piperidin-4-yl)methyl)carbamate]
[1]
  EC50: 3.98 nM
[2]
  furin enzyme pIC50: 9.1

## CC(=O)NCC1CCN(Cc2cc(Oc3cnc(N4CCN(CCC(C)C(=O)O)CC4)cn3)nc(-c3cc(Cl)cc(Cl)c3)c2)CC1 (stereo not shown) [Example 396, 4-(4-(5-((4-((4-(acetamidomethyl)piperidin-1-yl)methyl)-6-(3,5-dichlorophenyl)pyridin-2-yl)oxy)pyrazin-2-yl)piperazin-1-yl)-2-methylbutanoic acid]
[1]
  EC50: 10 nM
[2]
  furin enzyme pIC50: 10.3

## NS(=O)(=O)CC1CCN(Cc2cc(Oc3ccc(N4CCN(CCC(=O)O)CC4)nc3)nc(-c3cc(Cl)cc(Cl)c3)c2)CC1 [Example 38, 3-(4-(5-((6-(3,5-Dichlorophenyl)-4-((4-(sulfamoylmethyl)piperidin-1-yl)methyl)pyridin-2-yl)oxy)pyridin-2-yl)piperazin-1-yl)propanoic acid]
[1]
  EC50: 126 nM
[2]
  furin enzyme pIC50: 9

## CNC(=O)NCC1(O)CCN(Cc2cc(Oc3ccc(N4CCNCC4)nc3)nc(-c3cc(Cl)cc(Cl)c3)c2)CC1 [Example 5, 1-((1-((2-(3,5-Dichlorophenyl)-6-((6-(piperazin-1-yl)pyridin-3-yl)oxy)pyridin-4-yl)methyl)-4-hydroxypiperidin-4-yl)methyl)-3-methylurea, 4 hydrochloride]
[1]
  EC50: 63.1 nM
[2]
  furin enzyme pIC50: 9.1

## CC(=O)NCC1CCN(Cc2cc(Oc3cnc(N)c(F)c3)cc(-c3cc(Cl)cc(Cl)c3)c2)CC1 [Example 46, N-((1-((5-((6-Amino-5-fluoropyridin-3-yl)oxy)-3′,5′-dichloro-[1,1′-biphenyl]-3-yl)methyl)piperidin-4-yl)methyl)acetamide, 2 hydrochloride]
[1]
  EC50: 501 nM
[2]
  furin enzyme pIC50: 7

## CC(=O)NCC1CCN(Cc2cc(Oc3ccc(N4CCN(CCc5nnn[nH]5)CC4)nc3)nc(-c3cc(Cl)cc(Cl)c3)c2)CC1 [Example 14, N-((1-((2-((6-(4-(2-(1H-Tetrazol-5-yl)ethyl)piperazin-1-yl)pyridin-3-yl)oxy)-6-(3,5-dichlorophenyl)pyridin-4-yl)methyl)piperidin-4-yl)methyl)acetamide, 4 hydrochloride]
[1]
  EC50: 631 nM
[2]
  furin enzyme pIC50: 9.5

## CC(=O)NCC1CCN(Cc2cc(Oc3ccc(N4CCN(C)CC4)nc3)nc(-c3cc(Cl)cc(Cl)c3)c2)CC1 [Example 200, N-((1-((2-(3,5-dichlorophenyl)-6-((6-(4-methylpiperazin-1-yl)pyridin-3-yl)oxy)pyridin-4-yl)methyl)piperidin-4-yl)methyl)acetamide]
[1]
  EC50: 0.501 nM
[2]
  furin enzyme pIC50: 9.1

## O=C(O)[C@H]1[C@@H]2CCN(Cc3cc(Oc4cnc(N5CCN6CCC5C6)nc4)nc(-c4cc(Cl)cc(Cl)c4)c3)CC[C@@H]21 (stereo partly drawn) [Example 337, (1R,7S,8r)-4-((2-((2-(1,4-diazabicyclo[3.2.1]octan-4-yl)pyrimidin-5-yl)oxy)-6-(3,5-dichlorophenyl)pyridin-4-yl)methyl)-4-azabicyclo[5.1.0]octane-8-carboxylic acid]
[1]
  EC50: 7.94 nM
[2]
  furin enzyme pIC50: 9

## CNC(=O)OCC1CCN(Cc2cc(Oc3ccc(N4CCNCC4)nc3)nc(-c3cc(Cl)cc(Cl)c3)c2)CC1 [Example 74, (1-((2-(3,5-Dichlorophenyl)-6-((6-(piperazin-1-yl)pyridin-3-yl)oxy)pyridin-4-yl)methyl)piperidin-4-yl)methyl methylcarbamate, 4 hydrochloride]
[1]
  EC50: 6.31 nM
[2]
  furin enzyme pIC50: 8.4

## COC1CN(C)CCN(c2ncc(Oc3cc(CN4CCC(CC(=O)O)CC4)cc(-c4cc(Cl)cc(Cl)c4)n3)cn2)C1 (stereo not shown) [Example 144, 2-(1-((2-(3,5-dichlorophenyl)-6-((2-(6-methoxy-4-methyl-1,4-diazepan-1-yl)pyrimidin-5-yl)oxy)pyridin-4-yl)methyl)piperidin-4-yl)acetic acid]
[1]
  EC50: 7.94 nM
[2]
  furin enzyme pIC50: 8.5

## CC(=O)NCC1CCN(Cc2cc(Oc3ccc(N4CCN(CCC(C)C(=O)O)CC4)nc3)nc(-c3cc(Cl)cc(Cl)c3)c2)CC1 (stereo not shown) [Example 174, 4-(4-(5-((4-((4-(acetamidomethyl)piperidin-1-yl)methyl)-6-(3,5-dichlorophenyl)pyridin-2-yl)oxy)pyridin-2-yl)piperazin-1-yl)-2-methylbutanoic acid]
[1]
  EC50: 20 nM
[2]
  furin enzyme pIC50: 9.2
